What was measured:
[1] = molecular target: T1, human CB1 receptor (Homo sapiens, UniProt P21554); assay: bioSensAll GAPL-Gi2 BRET biosensor assay in HEK293 cells transfected with hCB1; test compound added before EC75-80 of agonist CP55,940 (0.1 nM); assay type: cell-based; conditions: vs CP55,940 0.1 nM (EC75-80), read-out: CB1 wt Gi2 IC50
T1 construct: expressed in transfected cells; host or cells: HEK293
Protocol: (§1) Using polyethylenimine (PEI) transfection agent, HEK293 cells were transfected in suspension with the human CB1 receptor and one of the following bioSensAll® assays: GAPL-Gi2, or β-arrestin plasma membrane (PM) translocation biosensor (+GRK2). Cells were directly seeded in 96-well plates immediately following transfection.
(§2) Cells were incubated with coelenterazine (luciferase substrate) and different test compounds prior to the measurement of BRET signals.
(§3) Used in this project are i) Gα plasma membrane (GAPL) biosensors and the ii) β-arrestin plasma membrane translocation biosensor.
i) GAPL sensors are used to monitor the activation of heterotrimeric G proteins at the plasma membrane upon receptor stimulation. Specifically, these multimolecular BRET sensors detect the plasma membrane recruitment of proteins that interact with active Gα subunits in a G protein family-selective manner. G protein activation following receptor stimulation generally leads to an increase in the BRET signal.
(§4) HEK293 cells were maintained in Dulbecco's Modified Eagle Medium (DMEM) (Wisent; cat #319-030-CL: without sodium pyruvate, with 4.5 g/L glucose, without L-glutamine) supplemented with 1% penicillin-streptomycin (Wisent; cat #450-201-EL) and 2 or 10% fetal bovine serum (Wisent cat #090150).
(§5) HEK293 cells were co-transfected with hCB1 and one of the above-listed bioSensAll® assays. For each transfection condition: • the total amount of transfected DNA was kept constant at 1 μg per mL of cell culture to be transfected; whenever necessary, salmon sperm DNA (Invitrogen, cat #15632011) was used as ‘carrier’ DNA to supplement plasmid DNA (i.e., biosensor and receptor); • the PEI (polyethylenimine 25 kDa linear, PolyScience, cat #23966) to DNA ratio (ug:ug) was fixed at 3:1.
(§6) Transfections were carried out as follows: • DNA and PEI were first diluted separately in 150 mM NaCl. The volume of the diluent in each tube corresponds to 5% of the cell culture volume to be transfected. • Once DNA and PEI were diluted, the PEI-containing solution was added to the DNA solution and the DNA/PEI mixture immediately vortexed for 5 seconds. • The DNA/PEI mixture was incubated for at least 20 minutes at room temperature to allow for the formation of DNA/PEI complexes. • During the incubation, HEK293 cells were detached, counted and re-suspended in culture medium (composition specified above). • At the end of the incubation period, the DNA/PEI mixture was added to the cells. • Cells were finally distributed in 96-well plates (White Opaque 96-well/Microplates, Greiner, cat #655083 or CulturPlate-96, White Opaque 96-well Microplate, PerkinElmer, cat #6005688) at a density of 30,000 cells per well.
(§7) At 48 hours post-transfection: • Using 450-Select TS Biotek plate washer, culture medium was aspirated and replaced with 100 μL of Hank's Balanced Salt Solution buffer (HBSS) (Wisent, cat #319-067CL: without red phenol; with sodium bicarbonate, with calcium and magnesium, with HEPES) per well. • Plates were then incubated (equilibrated) at 37° C., 5% CO2 for 60 minutes. • Increasing doses of test compounds were then added to each well using the HP D300e digital dispenser (Tecan). All compounds were assayed at the following 12 concentrations (in nM) with each biosensor: 0.000, 0.013, 0.040, 0.120, 0.320, 0.960, 2.80, 8.00, 24.0, 70.0, 205 and 600. • Three to 5 minutes later, an assay-specific effective concentration (EC)75-80 of agonist CP55,940 (i.e., 0.1 nM and 100 nM for G[…]i2-GAPL or […]Arrestin2 (+GRK2) assay, respectively) was added to wells previously injected with test compound (i.e., previous step 3). […]

[2] = molecular target: T1, human CB1 receptor; assay: bioSensAll β-arrestin2 plasma membrane translocation (+GRK2) BRET biosensor assay in HEK293 cells transfected with hCB1; test compound added before EC75-80 of agonist CP55,940 (100 nM); assay type: cell-based; conditions: βArrestin2 (+GRK2) BRET biosensor, vs CP55,940 100 nM (EC75-80), read-out: CB1 wt βarr2 IC50
Protocol: as §1, §2, §3
ii) The multimolecular β-arrestin membrane recruitment biosensors allow for real-time spatio-temporal monitoring of β-arrestin 1 and β-arrestin 2 following GPCR activation. Specifically, these β-arrestin sensors were designed to detect the recruitment of proteins to the plasma membrane (β-arrestin PM) with localization to compartment resulting in an increased BRET signal.
as §4, §5, §6, §7

T1 sequence (P21554 whole entry): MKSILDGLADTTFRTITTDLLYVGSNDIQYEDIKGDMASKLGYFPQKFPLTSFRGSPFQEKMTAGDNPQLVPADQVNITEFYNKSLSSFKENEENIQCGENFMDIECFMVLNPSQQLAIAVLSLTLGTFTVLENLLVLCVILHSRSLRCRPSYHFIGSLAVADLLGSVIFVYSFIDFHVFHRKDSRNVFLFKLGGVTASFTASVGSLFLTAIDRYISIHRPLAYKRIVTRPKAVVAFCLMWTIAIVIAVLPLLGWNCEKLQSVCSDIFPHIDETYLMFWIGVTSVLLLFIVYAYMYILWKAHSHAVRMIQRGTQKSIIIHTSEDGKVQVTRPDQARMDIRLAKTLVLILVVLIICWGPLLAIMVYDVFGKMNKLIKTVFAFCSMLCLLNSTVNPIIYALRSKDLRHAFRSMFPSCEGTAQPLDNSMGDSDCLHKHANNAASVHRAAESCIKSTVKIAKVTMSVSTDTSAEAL

SMILES | IC50 [1] [nM] | IC50 [2] [nM]
C[C@H](O)CN(C)c1nc(N2CCC(C)(C(N)=O)CC2)c2nc(-c3ccccc3Cl)n(-c3ccc(Cl)cc3)c2n1 [Compound 55, 1-[8-(2-chlorophenyl)-9-(4-chlorophenyl)-2-[[(2S)-2-hydroxypropyl]-methyl-amino]purin-6-yl]-4-methyl-piperidine-4-carboxamide] | 0.647 | 4.58
CCOC1(C(N)=O)CCN(c2nc(N3CCC[C@H]3CO)nc3c2nc(-c2ccccc2Cl)n3-c2ccc(Cl)cc2)CC1 [Compound 177] | 0.436 | 1.88
CC1(C(N)=O)CCN(c2nc(N3CCC[C@H]3CO)nc3c2nc(-c2ccc(C#N)cc2)n3-c2ccc(Cl)cc2)CC1 [Compound 36, 1-[9-(4-chlorophenyl)-8-(4-cyanophenyl)-2-[(2S)-2-(hydroxymethyl)pyrrolidin-1-yl]purin-6-yl]-4-methyl-piperidine-4-carboxamide] | 0.686 | 1.52
CCOC1(C(N)=O)CCN(c2nc(OCC(C)(C)O)nc3c2nc(-c2ccccc2Cl)n3-c2ccc(Cl)cc2)CC1 [Compound 207] | 0.652 | 2.02
CN(C)C(=O)c1nc(N2CCC(C)(C(N)=O)CC2)c2nc(-c3ccccc3Cl)n(-c3ccc(Cl)cc3)c2n1 [Compound 2, 6-(4-carbamoyl-4-methyl-1-piperidyl)-8-(2-chlorophenyl)-9-(4-chlorophenyl)-N,N-dimethyl-purine-2-carboxamide] | 10.5 | 63.5
CN(CCO)c1nc(NC2CN(C(=O)C(F)(F)F)C2)c2nc(-c3ccccc3Cl)n(-c3ccc(Cl)cc3)c2n1 [Compound 179] | 0.244 | 1.92
CN1CCN(c2nc(OCC(C)(C)O)nc3c2nc(-c2ccccc2Cl)n3-c2ccc(Cl)cc2)CC1 [Compound 227] | 4.78 | 11.7
CN(CCO)c1nc(N2CCC(C(N)=O)CC2)c2nc(-c3ccccc3Cl)n(-c3ccc(Cl)cc3)c2n1 [Compound 155] | 1.01 | 14.8
O=S1(=O)CCN(c2nc(N3CCC(C(F)(F)F)CC3)c3nc(-c4ccccc4Cl)n(-c4ccc(Cl)cc4)c3n2)CC1 [Compound 32, 4-[8-(2-chlorophenyl)-9-(4-chlorophenyl)-6-[4-(trifluoromethyl)-1-piperidyl]purin-2-yl]-1,4-thiazinane 1,1-dioxide] | 0.509 | 3.02
CN1C[C@H](Oc2nc(N3CCC(C)(C(N)=O)CC3)c3nc(-c4ccccc4Cl)n(-c4ccc(Cl)cc4)c3n2)C[C@H]1CO [Compound 236] | 2.89 | 22.8
CC(C)(O)COc1nc(-c2ccc(C(F)(F)F)nc2)c2nc(-c3ccccc3Cl)n(-c3ccc(Cl)cc3)c2n1 [Compound 123] | 0.876 | 2.04
Cc1cnn(-c2nc(N3CCC(C)(C(N)=O)CC3)c3nc(-c4ccccc4Cl)n(-c4ccc(Cl)cc4)c3n2)c1 [Compound 3, 1-[8-(2-chlorophenyl)-9-(4-chlorophenyl)-2-(4-methylpyrazol-1-yl)purin-6-yl]-4-methyl-piperidine-4-carboxamide] | 1.38 | 12.2
CC1(C(N)=O)CCN(c2nc(N3CCS(=O)(=O)CC3)nc3c2nc(-c2ccccc2Cl)n3-c2ccc(Cl)cc2)CC1 [Compound 16, 1-[8-(2-chlorophenyl)-9-(4-chlorophenyl)-2-(1,1-dioxo-1,4-thiazinan-4-yl)purin-6-yl]-4-methyl-piperidine-4-carboxamide] | 0.315 | 1.51
CC(C)(O)COc1nc(N2C[C@@H]3C[C@H]2CO3)c2nc(-c3ccccc3Cl)n(-c3ccc(Cl)cc3)c2n1 [Compound 204] | 3.96 | 16.6
C[C@@H](O)CN(C)c1nc(N2CCC(C)(C(N)=O)CC2)c2nc(-c3ccccc3Cl)n(-c3ccc(Cl)cc3)c2n1 [Compound 54, 1-[8-(2-chlorophenyl)-9-(4-chlorophenyl)-2-[[(2R)-2-hydroxypropyl]-methyl-amino]purin-6-yl]-4-methyl-piperidine-4-carboxamide] | 0.427 | 1.12
CCNC1(C(N)=O)CCN(c2nc(NCCO)nc3c2nc(-c2ccccc2Cl)n3-c2ccc(Cl)cc2)CC1 [Compound 141] | 0.982 | 2.28
C[C@H]1COCCN1c1nc(OCC(C)(C)O)nc2c1nc(-c1ccccc1Cl)n2-c1ccc(Cl)cc1 [Compound 211] | 0.943 | 6.86
C[C@@H](CO)N(C)c1nc(N2CCC(C)(C(N)=O)CC2)c2nc(-c3ccccc3Cl)n(-c3ccc(Cl)cc3)c2n1 [Compound 66, 1-[8-(2-chlorophenyl)-9-(4-chlorophenyl)-2-[[(1S)-2-hydroxy-1-methyl-ethyl]-methyl-amino]purin-6-yl]-4-methyl-piperidine-4-carboxamide] | 0.586 | 1.45
CCNC1(C(N)=O)CCN(c2nc(-n3ccnc3)nc3c2nc(-c2ccccc2Cl)n3-c2ccc(Cl)cc2)CC1 [Compound 152] | 0.716 | 1.2
CC1(C(N)=O)CCN(c2nc(-n3ccnc3CO)nc3c2nc(-c2ccccc2Cl)n3-c2ccc(Cl)cc2)CC1 [Compound 43, 1-[8-(2-chlorophenyl)-9-(4-chlorophenyl)-2-[2-(hydroxymethyl)imidazol-1-yl]purin-6-yl]-4-methyl-piperidine-4-carboxamide] | 1.37 | 5.27
CC1(C(N)=O)CCN(c2nc(NCCO)nc3c2nc(-c2ccccc2Cl)n3-c2ccc(Cl)cc2)CC1 [Compound 56, 1-[8-(2-chlorophenyl)-9-(4-chlorophenyl)-2-(2-hydroxyethylamino)purin-6-yl]-4-methyl-piperidine-4-carboxamide] | 0.83 | 5.41
COC(=O)N1CCN(c2nc(N(C)CCO)nc3c2nc(-c2ccccc2Cl)n3-c2ccc(Cl)cc2)CC1 [Compound 173] | 0.419 | 1.51
OC[C@@H]1CCCN1c1nc(-c2ccc(C(F)(F)F)nc2)c2nc(-c3ccccc3Cl)n(-c3ccc(Cl)cc3)c2n1 [Compound 163] | 0.491 | 2.78
CCNC1(C(N)=O)CCN(c2nc(N)nc3c2nc(-c2ccccc2Cl)n3-c2ccc(Cl)cc2)CC1 [Compound 149] | 8.93 | > 5000
CN(CCO)c1nc(N2CC(C)(C(N)=O)C2)c2nc(-c3ccccc3Cl)n(-c3ccc(Cl)cc3)c2n1 [Compound 73] | 0.556 | 1.77
CC(C)C(=O)Nc1nc(N2CCC(C)(C#N)CC2)c2nc(-c3ccccc3Cl)n(-c3ccc(Cl)cc3)c2n1 [Compound 89, N-[8-(2-chlorophenyl)-9-(4-chlorophenyl)-6-(4-cyano-4-methyl-1-piperidyl)purin-2-yl]-2-methyl-propanamide] | 0.789 | 2.31
CCN(CCO)c1nc(N2CCC(C)(C(N)=O)CC2)c2nc(-c3ccccc3Cl)n(-c3ccc(Cl)cc3)c2n1 [Compound 90, 1-[8-(2-chlorophenyl)-9-(4-chlorophenyl)-2-[ethyl(2-hydroxyethyl)amino]purin-6-yl]-4-methyl-piperidine-4-carboxamide] | 0.52 | 1.36
